Reference: patent US3968204A, “Antibiotic A-2315” (priority 1975, dated 1976)
≈ marks a conversion by molar mass, not a printed value.

Tests used:
Shigella flexneri = experiment: Disc-plate MIC; format: cell-based; details: Disc-Plate Method
[1] = system: cariogenic Streptococcus sp.; experiment: Artificial plaque glass rod test; format: cell-based; details: 0.1% solution, contact with plaque-encrusted rods as little as 5 minutes
Protocol: Narrow glass rods, which extend below the surface of the nutrient broth, are inserted into the tubes. After incubation at 37°C. overnight, a layer of artificial plaque (primarily cells and dextran) forms on the surface of the rods. The rods are then transferred to solutions containing varying concentrations of test compound and are allowed to remain in contact with these solutions for periods of 5, 10, and 15 minutes. After the appropriate time has elapsed, the rods are rinsed by dipping in sterile, deionized water; the rods are then incubated overnight at 37°C. in uninoculated medium containing sucrose and bromothymol blue. Growth is detected by observing the color change of bromothymol blue from green to yellow, due to acid production by the organisms when grown in a sucrose-containing medium.

Electrometric titration = format: physicochemical; details: 66 percent dimethylformamide in water
Protocol: Antibiotic A-2315 factor A is a white, amorphous solid, having a molecular weight of 503.2638, as determined by mass spectrometry, and an elemental analysis as follows: 61.51 percent carbon, 7.51 percent hydrogen, 8.69 percent nitrogen, and 21.53 percent oxygen. […] The specific rotation of A-2315 factor A is -132° when determined at a temperature of 27°C. in methanol in which the concentration of the antibiotic is 0.375 percent on a weight per volume basis.
Antibiotic A-2315 factor B is a white, amorphous solid, having a molecular weight of 501, as determined by mass spectrometry, and an elemental analysis as follows: 61.81 percent carbon, 7.02 percent hydrogen, 8.81 percent nitrogen, and 21.42 percent oxygen.
Antibiotic A-2315 factor C is a white, amorphous solid, having a molecular weight of 487, as determined by mass spectrometry, and an elemental analysis as follows: 61.04 percent carbon, 7.00 percent hydrogen, 7.96 percent nitrogen, and 22.61 percent oxygen. Based on elemental analysis and molecular weight, an empirical formula of C25 H33 N3 O7 is assigned to factor C.

Erwinia amylovora = experiment: Agar-dilution MIC; format: cell-based; details: Agar-Dilution Method
Mycobacterium avium = experiment: Disc-plate MIC; details: Disc-Plate Method
Propionibacterium acnes = experiment: MIC, anaerobic bacteria; format: cell-based; details: Cutibacterium acnes
Salmonella typhosa = experiment: Disc-plate MIC; details: Disc-Plate Method
[2] = system: Bacteriodes fragilis ssp. fragilis; experiment: MIC, anaerobic bacteria; format: cell-based
[3] = system: Peptostreptococcus intermedius; experiment: MIC, anaerobic bacteria; format: cell-based
[4] = system: anthracnose (Colletotrichum lagenarium); format: in vivo; details: 400 ppm
From the text: (§1) In yet another aspect of the invention, the A-2315 antibiotics are useful as plant-fungicidal agents.

[5] = system: bean rust (Uromyces phaseoli var. typica); experiment: Plant-fungicidal activity on bean plants; format: in vivo; details: 400 ppm
From the text: as §1

Clostridium septicum = experiment: MIC, anaerobic bacteria; format: cell-based
Salmonella typhimurium = experiment: Agar-dilution MIC; format: cell-based; details: Salmonella enterica, Agar-Dilution Method
Fusobacterium nucleatum = experiment: MIC, anaerobic bacteria; format: cell-based
Acute toxicity in mice = format: in vivo
Protocol: The acute toxicity of antibiotic A-2315 factor A, administered either orally or subcutaneously to mice and expressed as LDo, is greater than 500 mg./kg. The acute toxicities of the A-2315 factors, administered intraperitoneally to mice and expressed as LD50 are as follows: […]

[6] = system: Staphylococcus aureus 3074; experiment: Agar-dilution MIC; format: cell-based
Clostridium inocuum = experiment: MIC, anaerobic bacteria; format: cell-based
[7] = system: experimental bacterial infections; experiment: In vivo antimicrobial action in mice; details: subcutaneous injection
Protocol: (§2) When two doses each of A-2315 factors were administered to mice in illustrative infections, the ED50 values [effective dose in mg/kg to protect 50 percent of the test aninals; see Warren Wick, et al., J. Bacteriol.

Streptococcus faecalis = experiment: Agar-dilution MIC; format: cell-based; details: Enterococcus faecalis; Agar-Dilution Method
[8] = Growth performance of growing chicks; format: in vivo; details: 45.4 grams/ton in diet
Protocol: Still another useful property of the A-2315 antibiotics is their ability to improve growth performance in animals. For example, when A-2315 factor A was added to the diet of growing chicks at a level of 45.4 grams/ton, the average weight gain after 10 days was 159 grams, as compared with an average weight gain of 148 grams for the control group. The feed-conversion efficiency (feed/gain) for chickens fed antibiotic A-2315 factor A was 1.44; in contrast, the feed-conversion efficiency for the control group was 1.53.

Peptococcus anaerobius = experiment: MIC, anaerobic bacteria; format: cell-based
[9] = system: Staphylococcus aureus 3055; experiment: Protection of mice against experimental bacterial infection; format: in vivo; details: Staphylococcus aureus, 3055, sc, subcutaneous, two doses
Protocol: as §2
^ 2 Infecting challenges: S. aureus 3.16 × LD50 (ip)

Streptococcus mutans = experiment: Broth-dilution growth inhibition of cariogenic organism; format: cell-based; details: read-out: growth inhibiting concentration
Protocol: (§3) In another aspect of the present invention, the A-2315 antibiotics have the ability to inhibit the growth of microorganisms contributing to the development of periodontal disease. In broth-dilution tests, A-2315 factor A inhibits the growth of the cariogenic organism Streptococcus mutans at concentrations of 1-2 μg/ml and inhibits the growth of cariogenic filamentous rods at a concentration as low as 0.1 μg/ml.

[10] = system: cariogenic filamentous rods; experiment: as above; format: cell-based; details: read-out: growth inhibiting concentration (as low as)
Protocol: as §3

Clostridium ramosum = experiment: MIC, anaerobic bacteria; format: cell-based; details: Thomasclavelia ramosa

CC1=CC(O)CC(O)Cc2nc(co2)C(=O)NC(C)C(=O)OC(C(C)C)C(C)C=CC(=O)NCC=C1 (stereo not drawn) [Factor A]
MIC (Shigella flexneri): 1.56 μg/disc | effect on cariogenic organism in artificial plaque [1]: effective | titratable groups (Electrometric titration): did not indicate the presence of titratable groups | MIC (Erwinia amylovora): 50 µg/mL (≈ 99.3 µM) | MIC (Mycobacterium avium): 3.13 μg/disc | MIC (Propionibacterium acnes): 8 µg/mL (≈ 15.9 µM) | MIC (Salmonella typhosa): 12.5 μg/disc | MIC [2]: 128 µg/mL (≈ 254 µM) | MIC [3]: 8 µg/mL (≈ 15.9 µM) | protection of cucumber plants [4]: moderate protection | phytotoxicity ([4]; cucumber plants): Only slight phytotoxicity | protection of bean plants [5]: protected | phytotoxicity ([5]; bean plants): Only slight phytotoxicity | solubility in organic solvents (Solubility): soluble | solubility in water (Solubility): only slightly soluble | MIC (Clostridium septicum): 32 µg/mL (≈ 63.5 µM) | MIC (Salmonella typhimurium): > 100 µg/mL | MIC (Fusobacterium nucleatum): 128 µg/mL (≈ 254 µM) | LD50 (Acute toxicity in mice; mouse, in vivo, ip, intraperitoneally): > 400 mg/kg | acute toxicity, LDo (Acute toxicity in mice; orally): greater than 500 mg./kg. | acute toxicity, LDo (Acute toxicity in mice; subcutaneously): greater than 500 mg./kg. | MIC [6]: 1.56 µg/mL (≈ 3.1 µM) | MIC (Clostridium inocuum): 32 µg/mL (≈ 63.5 µM) | in vivo antimicrobial action [7]: have shown in vivo antimicrobial action | MIC (Streptococcus faecalis): 1.56 µg/mL (≈ 3.1 µM) | average weight gain ([8]; after 10 days, control 148 grams): 159 grams | feed-conversion efficiency (feed/gain) ([8]; control 1.53): 1.44 | MIC (Peptococcus anaerobius): 2 µg/mL (≈ 3.97 µM) | ED50 ([9]; Test I, challenge 4000 × LD50 (ip)): 90 mg/kg | ED50 ([9]; Test II, challenge 3.16 × LD50 (ip)): 45.7 mg/kg | MIC (Streptococcus mutans): 1 to 2 µg/mL (≈ 1.99 to 3.97 µM) | MIC [10]: 0.1 µg/mL (≈ 0.199 µM) | MIC (Clostridium ramosum): 8 µg/mL (≈ 15.9 µM)
